Values quoted from earlier work in paper PMC10114980, “Triple targeting of mutant EGFR^L858R/T790M, COX-2, and 15-LOX: design and synthesis of novel quinazolinone tethered phenyl urea derivatives for anti-inflammatory and anticancer evaluation” (Journal of Enzyme Inhibition and Medicinal Chemistry, 2023).

System: EGFR
Settings: Figure 2; cited from earlier work

Structure (SMILES)	IC50 [nM]
Cc1cccc(Cl)c1NC(=O)Nc1ccc(-c2nc(NCCN(C)C)c3ccccc3n2)cc1 [I]	56
O=C(CNc1ccc(Cl)cc1)Cn1c(-c2ccccc2)nc2ccccc2c1=O [G]	81
